{
  "source": "patent US20020110604A1",
  "about": "“Composition exhibiting synergistic antioxidant activity” (Ashni Naturaceuticals, Inc., priority 2000, published 2002)",
  "assay": "Total Oxyradical Scavenging Capacity (TOSC) Assay; synergy by CalcuSyn median-effect analysis",
  "assay_type": "biochemical",
  "details": "TOSC antioxidant capacity; pure compounds, astaxanthin alone or combined at the stated ratio",
  "method": "Cm is determined from the x-intercept of the median-effect plot. The fraction affected by the concentration of the test material is fa and the fraction unaffected by the concentration is fu (fu=1−fa). The exponent m is the parameter signifying the sigmoidicity or shape of the dose-effect curve. It is estimated by the slope of the median-effect plot. […] The goodness of fit for the data to the median-effect equation is represented by the linear correlation coefficient r of the median-effect plot. […] Synergy of test components is quantified using the combination index (CI) parameter. […] The equation determines only the additive effect rather than synergism or antagonism.",
  "data": [
    {"smiles": "CC1=C(/C=C/C(C)=C/C=C/C(C)=C/C=C/C=C(C)/C=C/C=C(C)/C=C/C2=C(C)C(=O)[C@@H](O)CC2(C)C)C(C)(C)C[C@H](O)C1=O", "note": "[astaxanthin, 3, 3′-dihydroxy-β,β-carotene-4, 4′-dieto-β-carotene]", "values": [
      {"measurement": "EC50", "result": 642, "unit": "µM"}
    ]}
  ]
}
